This passage reports IC50 results from patent US11384055B2 (BIOMARIN PHARMACEUTICAL INC., priority 2017, dated 2022).

This experiment deals with T1, Human GO (Homo sapiens, UniProt Q9UJM8).
T1 construct: purchased Novus Biologicals NBP1-72412
T1 sequence (Q9UJM8 1-370): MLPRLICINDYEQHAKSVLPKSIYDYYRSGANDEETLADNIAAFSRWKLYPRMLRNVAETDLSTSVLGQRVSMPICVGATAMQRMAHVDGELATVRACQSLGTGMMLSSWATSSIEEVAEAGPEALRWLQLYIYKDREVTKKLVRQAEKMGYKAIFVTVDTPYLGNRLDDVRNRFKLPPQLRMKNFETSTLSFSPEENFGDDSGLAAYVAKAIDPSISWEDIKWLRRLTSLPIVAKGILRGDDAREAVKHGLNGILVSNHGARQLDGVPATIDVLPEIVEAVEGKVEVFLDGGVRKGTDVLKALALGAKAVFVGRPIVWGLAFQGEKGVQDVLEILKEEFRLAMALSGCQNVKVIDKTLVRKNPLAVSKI
Kind of experiment: GO enzymatic assay (coupled fluorescence/HRP assay, glycolate substrate). Format: biochemical. The procedure, abridged: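 Coupled HRP/fluorescence read-out of glycolate oxidation by human GO in 50 mM potassium phosphate buffer (pH 7). Inhibitors added across a concentration range.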

[1] abbreviates: Table 1, read-out: Range (range of IC50 values calculated from the enzymatic assays).

Molecules are shown by their SMILES. Read-outs that look alike come from different tables or passages of the source.

Turning to `O=C(O)c1[nH]nnc1-c1ccc(-c2ccc(OC(F)(F)F)cc2)c(Cl)c1` [Compound 139, 4-(2-chloro-4′-(trifluoromethoxy)-[1,1′-biphenyl]-4-yl)-1H-1,2,3-triazole-5-carboxylic acid 2,2,2-trifluoroacetate], under setting [1], the half-maximal inhibitory concentration (IC50) was 100 to 1000 nM.
As to `O=C(O)c1[nH]nnc1C1=Cc2ccccc2CC1` [Compound 140, 4-(3,4-dihydronaphthalen-2-yl)-1H-1,2,3-triazole-5-carboxylic acid 2,2,2-trifluoroacetate], the IC50 under setting [1] is under 100 nM.
As to `O=C(O)c1[nH]nnc1C1CCc2ccccc2C1` (stereo not drawn) [Compound 141, 4-(1,2,3,4-tetrahydronaphthalen-2-yl)-1H-1,2,3-triazole-5-carboxylic acid 2,2,2-trifluoroacetate], the concentration for half-maximal inhibition (IC50) under setting [1] was 100 to 1000 nM.
Still for that read-out and setting: the result for `CC(C)N1CCc2cc(-c3nn[nH]c3C(=O)O)ccc2C1` [Compound 143, 4-(2-isopropyl-1,2,3,4-tetrahydroisoquinolin-6-yl)-1H-1,2,3-triazole-5-carboxylic acid 2,2,2-trifluoroacetate] reads over 10000 nM; that for `CC(C)N1CCc2ccc(-c3nn[nH]c3C(=O)O)cc2C1` [Compound 144, 4-(2-isopropyl-1,2,3,4-tetrahydroisoquinolin-7-yl)-1H-1,2,3-triazole-5-carboxylic acid 2,2,2-trifluoroacetate], over 10000 nM.
For the molecule `O=C(O)c1[nH]nnc1-c1ccc(OC(F)(F)F)cn1` [Compound 145, 4-(5-(trifluoromethoxy)pyridin-2-yl)-1H-1,2,3-triazole-5-carboxylic acid 2,2,2-trifluoroacetate], the half-maximal inhibitory concentration (IC50) under setting [1] was 1000 to 10000 nM.
On to `O=C(O)c1[nH]nnc1C(=O)N1CCC(c2ccc(Cl)cc2)C1` (stereo not drawn) [Compound 146, 4-(3-(4-chlorophenyl)pyrrolidine-1-carbonyl)-1H-1,2,3-triazole-5-carboxylic acid], for which the 50% inhibitory concentration (IC50) under setting [1] was 1000 to 10000 nM.
As for `O=C(O)c1[nH]nnc1C(=O)N1Cc2ccc(Cl)cc2C1` [Compound 147, 4-(5-chloroisoindoline-2-carbonyl)-1H-1,2,3-triazole-5-carboxylic acid], under setting [1], the IC50 was 1000 to 10000 nM.
With `O=C(O)c1[nH]nnc1C(=O)N1CCc2cc(Cl)ccc21` [Compound 148, 4-(5-chloroindoline-1-carbonyl)-1H-1,2,3-triazole-5-carboxylic acid], the concentration for half-maximal inhibition (IC50) under setting [1] is under 100 nM.
Consider `O=C(O)c1[nH]nnc1C(=O)N1CCC(c2ccc(Cl)cc2Cl)C1` (stereo not drawn) [Compound 149, 4-(3-(2,4-dichlorophenyl)pyrrolidine-1-carbonyl)-1H-1,2,3-triazole-5-carboxylic acid], for which, under setting [1], the IC50 was 1000 to 10000 nM.
As for `O=C(O)c1[nH]nnc1C(=O)N1CCC(c2ccc(Cl)c(Cl)c2)C1` (stereo not drawn) [Compound 150, 4-(3-(3,4-dichlorophenyl)pyrrolidine-1-carbonyl)-1H-1,2,3-triazole-5-carboxylic acid], under setting [1], the half-maximal inhibitory concentration (IC50) was 1000 to 10000 nM.
On to `O=C(O)c1[nH]nnc1SCc1ccc(Cl)c2ccccc12` [Compound 152, 4-(((4-chloronaphthalen-1-yl)methyl)thio)-1H-1,2,3-triazole-5-carboxylic acid 2,2,2-trifluoroacetate], for which the concentration for half-maximal inhibition (IC50) under setting [1] is under 100 nM.
The same measure, in the same setting: the result for `O=C(O)c1[nH]nnc1Nc1cc(Cl)cc(Cl)c1` [Compound 153, 4-((3,5-dichlorophenyl)amino)-1H-1,2,3-triazole-5-carboxylic acid] reads 100 to 1000 nM.
As to `O=C(O)c1[nH]nnc1Nc1cc(Cl)ccc1Cl` [Compound 154, 4-((2,5-dichlorophenyl)amino)-1H-1,2,3-triazole-5-carboxylic acid 2,2,2-trifluoroacetate], the 50% inhibitory concentration (IC50) under setting [1] is 1000 to 10000 nM.
Same read-out and setting: for `O=C(O)c1[nH]nnc1Nc1ccc(-c2ccc(OC(F)(F)F)c(Cl)c2)cc1` [Compound 155, 4-((3′-chloro-4′-(trifluoromethoxy)-[1,1′-biphenyl]-4-yl)amino)-1H-1,2,3-triazole-5-carboxylic acid] the value was under 100 nM; for `O=C(O)c1[nH]nnc1Oc1ccc(-c2ccc(OC(F)(F)F)c(Cl)c2)cc1` [Compound 156, 4-((3′-chloro-4′-(trifluoromethoxy)-[1,1′-biphenyl]-4-yl)oxy)-1H-1,2,3-triazole-5-carboxylic acid], under 100 nM.
For `O=C(O)c1[nH]nnc1Oc1ccc(-c2cccc(C(=O)N3CCCCC3)c2)cc1` [Compound 157, 4-((3′-(piperidine-1-carbonyl)-[1,1′-biphenyl]-4-yl)oxy)-1H-1,2,3-triazole-5-carboxylic acid 2,2,2-trifluoroacetate], under setting [1], the IC50 is under 100 nM.
For `O=C(O)c1[nH]nnc1COc1ccc2cc(Cl)ccc2c1` [Compound 158, 4-(((6-chloronaphthalen-2-yl)oxy)methyl)-1H-1,2,3-triazole-5-carboxylic acid 2,2,2-trifluoroacetate], under setting [1], the IC50 is under 100 nM.
As to `O=C(O)c1[nH]nnc1Oc1ccc(-c2cccc(CN3CCCCC3)c2)cc1` [Compound 160, 4-((3′-(piperidin-1-ylmethyl)-[1,1′-biphenyl]-4-yl)oxy)-1H-1,2,3-triazole-5-carboxylic acid 2,2,2-trifluoroacetate], under setting [1], the 50% inhibitory concentration (IC50) is 100 to 1000 nM.
With `O=C(O)c1[nH]nnc1Oc1ccc(-c2ccc(C(F)(F)F)cc2)cc1` [Compound 161, 4-((4′-(trifluoromethyl)-[1,1′-biphenyl]-4-yl)oxy)-1H-1,2,3-triazole-5-carboxylic acid], under setting [1], the half-inhibitory concentration (IC50) was under 100 nM.
`O=C(O)c1[nH]nnc1Oc1ccc(-c2cccc(OC3CCCC3)c2)cc1` [Compound 162, 4-((3′-(cyclopentyloxy)-[1,1′-biphenyl]-4-yl)oxy)-1H-1,2,3-triazole-5-carboxylic acid]: under setting [1], the IC50 was under 100 nM.
Regarding `O=C(O)c1[nH]nnc1Oc1ccc(-c2ccc(Cl)c(OC(F)(F)F)c2)cc1` [Compound 163, 4-((4′-chloro-3′-(trifluoromethoxy)-[1,1′-biphenyl]-4-yl)oxy)-1H-1,2,3-triazole-5-carboxylic acid], the IC50 under setting [1] is under 100 nM.
For the molecule `O=C(O)c1[nH]nnc1Sc1ccc(-c2cccc(N3CCCCC3)c2)cc1` [Compound 164, 4-((3′-(piperidin-1-yl)-[1,1′-biphenyl]-4-yl)thio)-1H-1,2,3-triazole-5-carboxylic acid 2,2,2-trifluoroacetate], under setting [1], the IC50 was under 100 nM.
In turn, `O=C(O)c1[nH]nnc1Oc1ccc(-c2ccc(Cl)c(Cl)c2)cc1` [Compound 165, 4-((3′,4′-dichloro-[1,1′-biphenyl]-4-yl)oxy)-1H-1,2,3-triazole-5-carboxylic acid 2,2,2-trifluoroacetate] displayed a half-inhibitory concentration (IC50) of under 100 nM.
Consider `O=C(O)c1[nH]nnc1C(F)(F)c1ccc(Cl)c(Cl)c1` [Compound 166, 4-((3,4-dichlorophenyl)difluoromethyl)-1H-1,2,3-triazole-5-carboxylic acid], for which, under setting [1], the 50% inhibitory concentration (IC50) is under 100 nM.
`O=C(O)c1[nH]nnc1OC1CCC(F)(F)CC1` [Compound 167, 4-((4,4-difluorocyclohexyl)oxy)-1H-1,2,3-triazole-5-carboxylic acid 2,2,2-trifluoroacetate]: the half-maximal inhibitory concentration (IC50) under setting [1] was under 100 nM.
Consider `O=C(O)c1[nH]nnc1OC1CC2CCC1C2` (stereo not drawn) [Compound 168, 4-(bicyclo[2.2.1]heptan-2-yloxy)-1H-1,2,3-triazole-5-carboxylic acid], for which the IC50 under setting [1] was under 100 nM.

What is called IC50 is the midpoint of a concentration-inhibition curve.
